What was measured:
Intestinal cell = Intestinal cell experiment: hydrogen peroxide irritation, cell activity by MTT method; format: cell-based; conditions: 2 mM hydrogen peroxide for 2 h, then cultured 4 h
Experimental: Cell experiment: Intestinal cell experiment is performed on a carrying complex. 100 μL of a carrying material-nutritional factor complex dissolved solution is added to a cell culture solution, 2 mM of a hydrogen peroxide solution is added for irritating cells for 2 h, and the cells are continued to be cultured for 4 h. Cell activity is detected by an MTT method.

[1] = Biological stability by oxidation rate POV (potassium thiocyanate peroxide value method); format: physicochemical; conditions: conjugated linoleic acid carried; stability from maximum peroxide value (POV)
Experimental: To better realize the present invention, biological stability is characterized by determining the oxidation rate POV (peroxide value) by applying a potassium thiocyanate POV determining method. POV is calculated through the formula below: […]
c and c0 are the mass of iron in a test sample and a blank sample; m is the mass of CLA; 2 is a conversion factor; and 55.84 is the relative atomic mass of iron. The degree of oxidation of pure nutritional factors serves as control, and the maximum values of the amount of peroxide (POV) in the control and the material are calculated and compared. POV is the amount of peroxide in a first stage product obtained after fat oxidation. Because it cannot be excluded that a small amount of peroxide continues to decompose into small molecular substances under an oxidizing environment, the stability is characterized by: Stability[…](100−100 g CLA maximum value of the amount of peroxide generated by oxidation)/100*100%.

| Biological stability [1] [%] | Compound | Cell activity % (Intestinal cell; 1 μg/ml) [%] | Cell activity % (Intestinal cell; 10 μg/ml) [%] |
| --- | --- | --- | --- |
| – | COC1=C(OC)C(=O)C(C/C=C(\C)CC/C=C(\C)CC/C=C(\C)CC/C=C(\C)CC/C=C(\C)CC/C=C(\C)CC/C=C(\C)CC/C=C(\C)CC/C=C(\C)CCC=C(C)C)=C(C)C1=O [Coenzyme Q10, coenzyme Q10] | 92 ± 3.4 | 97 ± 2.6 |
| 58.2 | conjugated linoleic acid [Control 1] | – | – |

— patent publication US11311043B2, “Preparation of glucan-based shell-core structure carrier material and its application thereof” (Jiangnan University, priority 2018, dated 2022)
